# In patent US20240238076A1, “PROCESS FOR PRODUCING VASCULAR PROSTHESES” (Medizinische Universität Wien, priority 2021, published 2024):
# Test system: HUVECs
# Assay: XTT cytotoxicity test with HUVEC cultures
# Assay type: cell-based, human
# Conditions: 24 h incubation, 10-fold dilution series from 450 μmol/ml
# Method: Human umbilical vein endothelial cells (HUVEC, pooled donator, Lonza, Switzerland) were cultivated in endothelial growth medium (EGM-2, Lonza, Switzerland) supplemented with 10% of FBS. The exchange of medium was conducted every other day. The cells were used for the experiments between passage 3 and 6.
# XTT (2,3-bis(2-methoxy-4-nitro-5-sulfophenyl)-5-[(phenylamino)carbonyl)-2H-tetrazoliumhydroxide) can be reduced to a formazan product in viable cells. The result can be determined by photometric measurements and correlated with the number of viable cells. The assay was conducted based on ISO10993-5.
# HUVECs or macrophages were seeded on the polymer disks at a cell number of 10,000 cells/disk in a 96 well plate for 24 h until a confluent cell layer was formed. XTT powder was dissolved in a cell culture medium with 60° C. at a concentration of 1 mg/ml. PMS (phenazine methosulfate, Sigma-Aldrich, USA) was dissolved in PBS at a concentration of 5 mM. For preparing a working solution, which was added to cells, PMS was pipetted into the XTT solution at a concentration of 25 μM. The cells were incubated with 50 μl of this XTT working solution for 4 h at 37° C. in a cell culture incubator. The medium was then transferred to a new 96 well plate, and absorption at 450 nm was measured with a reference wavelength of 620 nm. The results are shown in FIG. 9 as mean values of three determinations. […]
smiles,measurement,value
"CC(C)(C)NCCNC(C)(C)C [TBEDA, N,N′-di-tert-butylethylenediamine]",Concentration from which the viability of HUVECs was at an acceptable level,45000 µM
